From patent publication US20200222418A1, “USE OF PHENOTHIAZINE DERIVATIVE IN THE TREATMENT OF INFECTION CAUSED BY BACTERIA CARRYING TYPE IV PILI” (priority 2017, published 2020)

Assays:
[1] = test system: HDMECs infected with N. meningitidis Nm2C4.3; experiment: Basement membrane (Gelatin-FITC matrix) degradation by infected endothelial cells; type: cell-based, human; details: 150 μg/ml Gentamicin, 24 h post-infection
Method: (A) Experimental procedure: HBMECs grown on a fluorescent matrix (Gelatin-Fitc) were colonized by N. meningitidis for 6 h. They were then treated with 150 μg/ml gentamicin for 1 h, then 15 min with Trifluoperazine (50 μM) (or solvent alone as control) and incubated for further 15 h in the presence of 150 μg/ml gentamicin. (B) Fluorescence microscopy was used to visualize cells stained with labelled phalloidin and the fluorescent matrix. The presence of dark zones corresponds to zones of matrix degradation. (C) Quantification of the percentage of matrix degradation, using Image J software.
Plastic coverslips (13 mm diameter) (Nalgen #174950) were washed in ethanol 70%, dried then coated with poly-L-lysine 1 mg/ml for 20 min at room temperature. After one wash in sterile PBS, 0.5% Glutaraldehyde was added for 15 min at room temperature. After three washes in PBS, Gelatin-FITC (0.2 mg/ml Invitrogen #G13187) was added for 10 minutes at room temperature in the dark. Coverslip were then washed with sterile PBS and treated with 5 mg/ml sodium borohydride for 3 min. After three washes in sterile PBS, 10^5 HDMECs (PromoCell #C-12210) were seeded per well in their PromoCell culture medium and incubated overnight at 37° C. 5% CO2. The day after, cells were infected with N. meningitidis Nm2C4.3, as above described. […] Quantifications were performed using ImageJ software (NIH).

[2] = test system: Enteropathogenic Escherichia coli (EPEC ΔescN-GFP) microcolonies on HBMEC; experiment: Dispersion of EPEC microcolonies on HBMEC; type: cell-based; details: 10 to 50 μM, 30 min
Method: Human […] microvascular endothelial cells (HBMEC) were infected with a GFP-expressing mutant Enteropathogenic Escherichia coli, which lacks the ATPase escN (EPEC ΔescN-GFP) for 2 h, then treated with Trifluoperazine (10-50 μM) for 30 minutes, before fixation and immunofluorescence analysis using Alexa Fluor 633 Phalloidin. (A) Representative fluorescence microscopy showing bacterial colony (white dots) formed at the surface of the endothelial cells. (B) Quantification of the bacterial colonization was performed using Image J software.
HBMEC were grown on Thermanox coverslips coated with gelatin 2% for 2 days to reach confluency. Cells were then infected for 1 h with a GFP-expressing mutant Enteropathogenic Escherichia coli (EPEC), which lacks the ATPase escN. This strain is unable to translocate effector proteins and is more prone to form pilus-dependent microcolony at the host cell surface (Jensen et al., 2015). Cells were then washed three times with medium to remove non-adherent bacteria and infection was pursued for 1 extra hour, to allow bacterial growth at the endothelial cell surface to form microcolonies. Trifluoperazine was then added to obtain final concentrations of 10, 20, 30 and 50 μM. After incubation for 30 minutes, cells were washed and fixed in 4% Paraformaldehyde for 10 min, washed three times with PBS. […] Quantification was done with ImageJ software (NIH). […]

[3] = test system: Nm2C4.3 microcolonies on HCMEC/D3 human brain endothelial cell line; experiment: Dispersion of meningococcal microcolonies on human brain endothelial cells; type: cell-based, Neisseria meningitidis; details: 10-40 μM, 30 min
Method: A. HBMEC were infected with Nm2C4.3 for 1 h 30, treated with Trifluoperazine (10-40 μM) for 30 minutes, before fixation and immunofluorescence analysis using anti-Nm2C4.3 antibody and Alexa Fluor 633 Phalloidin. B. Quantification of the bacterial colonization was performed using Image J software.
HCMEC/D3, a well-established human brain endothelial cell line (Weksler et al, 2013) was grown in EBM-2 basal medium (Lonza, Walkersville, Md., USA) supplemented with 5% Fetal Bovine Serum “Gold”, 10 mM HEPES (PM Laboratories GmbH, Pasching, Austria), 1% Penicillin-Streptomycin, 1% chemically defined lipid concentrate (Invitrogen Ltd, Paisley, UK), 1.4 μM hydrocortisone, 5 μg·ml^−1 ascorbic acid and 1 ng·ml^−1 bFGF (Sigma-Aldrich, St. Louis, Mo.). Cells were grown on Thermanox coverslips coated with rat collagen I for 4 days at 37° C. in a humidified incubator in 5% CO2. Cells were then infected with a suspension of Nm2C4.3 (˜10^7 CFU/ml) in EBM2/FBS during 30 minutes to allow bacterial adhesion. Cells were then washed three times with medium to remove non-adherent bacteria and infection was pursued for 1 h 30: adherent bacteria grew at the endothelial cell surface and formed micro-colonies. Trifluoperazine was then added to obtain final concentrations of 10, 20, 30 and 40 μM. […] Quantification was done with ImageJ software (NIH). […]

Compound | degradation of the basement membrane [1] | dispersion of EPEC microcolonies at the endothelial cell surface [2] | dispersion of meningococcal microcolonies at the surface of human brain endothelial cells [3]
CN[C@@H]1[C@@H](O)C(O[C@@H]2[C@@H](O)[C@H](O[C@H]3O[C@H]([C@@H](C)NC)CC[C@H]3N)[C@@H](N)C[C@H]2N)OC[C@]1(C)O (stereo partly drawn) [Gentamicin, (3R,4R,5R)-2-{[(1S,2S,3R,4S,6R)-4,6-diamino-3-{[(2R,3R,6S)-3-amino-6-[(1R)-1-(methylamino)ethyl]oxan-2-yl]oxy}-2-hydroxycyclohexyl]oxy}-5-methyl-4-(methylamino)oxane-3,5-diol] | about 20% |  | 
CN1CCN(CCCN2c3ccccc3Sc3ccc(C(F)(F)F)cc32)CC1 [Trifluoperazine] |  | induced the dispersion of these microbial colonies in a dose-dependent manner | induced their dispersion
